Laboratory results taken from patent US20190119300A1, “SUBSTITUTED AND FUSED 6-MEMBERED PROTEASE ACTIVATED RECEPTOR 4 (PAR-4) ANTAGONISTS” (Vanderbilt University, priority 2016, published 2019).

Legend:
PAR-4 [1] = target: T1, PAR-4 (Homo sapiens, UniProt Q96RI0); experiment: PAC-1 binding assay, washed platelets stimulated with PAR-4-AP (flow cytometry); format: cell-based; settings: PAR-4-AP stimulation; for remaining activity at 10 µM: 10 μM antagonist, 100% = DMSO control stimulated, read-out: PAR-4 AP % Max PAC-1 binding (10 μM); for IC50: read-out: PAR-4 AP % Max PAC-1 binding (IC50 [M])
T1 construct: endogenous in cells; host or cells: washed platelets
T1 sequence (Q96RI0 18-385): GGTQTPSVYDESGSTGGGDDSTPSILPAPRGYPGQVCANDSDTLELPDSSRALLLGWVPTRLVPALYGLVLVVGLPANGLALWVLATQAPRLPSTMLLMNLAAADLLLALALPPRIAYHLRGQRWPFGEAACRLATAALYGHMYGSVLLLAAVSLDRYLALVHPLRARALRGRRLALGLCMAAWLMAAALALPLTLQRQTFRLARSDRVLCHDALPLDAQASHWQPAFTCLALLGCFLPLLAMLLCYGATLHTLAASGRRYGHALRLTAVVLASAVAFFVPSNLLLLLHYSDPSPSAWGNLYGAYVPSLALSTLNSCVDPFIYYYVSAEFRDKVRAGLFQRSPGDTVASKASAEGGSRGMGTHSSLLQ
Experimental: (§1) PAC-1 Binding assay: 60 μL of washed platelets (Tyrodes buffer containing 0.1% BSA) at a concentration of 0.15×10^8 platelets/mL were added to 5 mL round bottom polystyrene tubes (BD, Franklin Lakes, N.J.). FITC conjugated PAC-1 (BD Biosciences, San Jose, Calif.) antibody was diluted (to the manufacturers recommended concentration) in Tyrode's buffer containing 0.1% BSA. 40 μL of diluted antibody was added to the platelets and allowed to incubate for 5 minutes. Platelets were pre-treated with indicated concentrations of antagonist or DMSO control for 20 minutes (the final DMSO concentration was 0.5%) followed by addition of PAR-1-AP (GL Biochem, Shanghai, China), PAR-4-AP, or gamma-thrombin for 10 minutes. Platelet activity was quenched by the addition ice cold 1.5% paraformaldehyde followed by dilution in 1× phosphate buffered saline. Platelets were stored up to 18 hours at 4° C. before flow cytometric analysis. Analysis was carried out on a BD FACS Canto II or BD LSRII (Franklin Lakes, N.J.). Fluorescent intensity was determined for at least 20,000 events within the platelet gate (forward scatter versus side scatter). Data was collected and analyzed via FACS DiVa or FlowJo software. Flow cytometric data analysis was conducted by the following method. The DMSO-vehicle treated control was subtracted from each data point. 100% response for PAR-4-AP was determined for each individual as the DMSO treated control stimulated with PAR-4-AP, PAR-1-AP, or gamma-thrombin. Data was plotted in GraphPad PRISM v.5.0. For compounds with a notable reduction in PAC-1 binding response, dose response curves and IC50 values were generated using the inhibitory sigmoidal dose response ‘variable slope’ parameter. Results were plotted as mean±SEM.

PAR-4 [2] = target: T1, PAR-4; experiment: PAC-1 binding assay, washed platelets stimulated with 100 nM gamma-thrombin (flow cytometry); format: cell-based; settings: 100 nM γ-thrombin stimulation
Excerpt: Gamma-thrombin is a proteolytic product of alpha-thrombin cleavage by a serine protease. Cleavage results in the disruption of exosite I which interacts directly with the hirudin-like domain of its primary substrates fibrinogen and protease-activated receptor 1 (PAR1). […] See Soslau, G., Class, R., Morgan, D. A., Foster, C., Lord, S. T., Marchese, P., and Ruggeri, Z. M. (2001) Unique pathway of thrombin-induced platelet aggregation mediated by glycoprotein Ib, The Journal of biological chemistry 276, 21173-21183. Gamma-thrombin (Enzyme Research Laboratories, South Bend, Indiana) is produced by trypsin-sepharose cleavage of alpha-thrombin. To neutralize alpha-thrombin contamination, stock solutions of gamma-thrombin are preincubated with 1 unit/mL hirudin prior 100 fold dilution into the sample for platelet stimulation. […] Single point screens and concentration response curves are conducted with 316 nanomolar or 100 nanomolar gamma-thrombin using PAC1 and CD62p binding.
as §1

SMILES	remaining activity at 10 µM (PAR-4 [1])	IC50 (PAR-4 [1])	IC50 (PAR-4 [2])
COc1nn2cc(-c3ccc(C(F)(F)F)cc3)nc2s1 [Example B1]	-1.91%	–	–
COc1nn2cc(-c3ccccc3C(F)(F)F)nc2s1 [Example B2]	-0.14%	1.33e-06 M	–
COc1nn2cc(-c3cccc(C(F)(F)F)c3)nc2s1 [Example B3]	-0.26%	–	–
COc1nn2cc(-c3c(F)cccc3F)nc2s1 [Example B4]	1.29%	–	–
COc1nn2cc(-c3ccc(F)cc3F)nc2s1 [Example B5]	0.21%	1.75e-07 M	–
COc1nn2cc(-c3ccc(Br)cc3F)nc2s1 [Example B6]	2.82%	1.96e-07 M	–
COc1nn2cc(-c3cccc(F)c3)nc2s1 [Example B7]	1.47%	6.85e-07 M	–
COc1nn2cc(-c3ccccc3)nc2s1 [Example B8]	1.48%	7.08e-07 M	–
COc1nn2cc(-c3ccc(Oc4ccccc4)cc3)nc2s1 [Example B9]	-0.09%	1.43e-07 M	–
COc1ccc(-c2cn3nc(OC)sc3n2)cc1 [Example B10]	-1.59%	6.25e-07 M	–
COc1nn2cc(-c3ccc(S(C)(=O)=O)cc3)nc2s1 [Example B11]	4.19%	1.09e-06 M	–
COc1nn2cc(-c3ccc(C)cc3)nc2s1 [Example B12, 2-methoxy-6-(p-tolyl)imidazo[2,1-b][1,3,4]thiadiazole]	1.78%	5.2e-08 M	> 1000 nM
COc1nn2cc(-c3ccc(O)cc3O)nc2s1 [Example B13]	98.4%	–	–
COc1nn2cc(-c3ccccc3O)nc2s1 [Example B14]	92.7%	–	–
COc1nn2cc(-c3ccccc3OC)nc2s1 [Example B15]	8.45%	3.95e-06 M	–
COc1nn2cc(-c3ccc(O)cc3)nc2s1 [Example B16]	91.2%	–	–
COc1nn2cc(-c3ccc(C#N)cc3)nc2s1 [Example B17]	0.93%	8.95e-07 M	–
COc1nn2cc(-c3ccccn3)nc2s1 [Example B18]	18.6%	2.22e-05 M	–
COc1nn2cc(-c3ccc(Cl)cc3)nc2s1 [Example B19]	0.02%	–	–
COc1nn2cc(-c3ccc(Cl)c(Cl)c3)nc2s1 [Example B20]	-0.92%	–	–
COc1nn2cc(-c3ccccc3Cl)nc2s1 [Example B21]	0.74%	4.54e-07 M	–
COc1nn2cc(-c3cccnc3)nc2s1 [Example B22]	81.3%	–	–
COc1nn2cc(-c3cccc(Cl)c3)nc2s1 [Example B23]	-1.07%	6.9e-08 M	> 1000 nM
COc1nn2cc(-c3ccc(-c4cccs4)cc3)nc2s1 [Example B24]	3.35%	1.63e-07 M	–
COc1nn2cc(-c3cc(C(F)(F)F)cc(C(F)(F)F)c3)nc2s1 [Example B25]	-0.34%	5.23e-08 M	> 1000 nM
COc1nn2cc(-c3ccc(Cl)c([N+](=O)[O-])c3)nc2s1 [Example B26]	1.52%	9.95e-08 M	–

SMILES	remaining activity at 10 µM (PAR-4 [1])	IC50 (PAR-4 [1])	IC50 (PAR-4 [2])
COc1nn2cc(-c3ccc(OC(F)(F)F)cc3)nc2s1 [Example B27]	-0.2%	–	–
COc1nn2cc(-c3ccc(OC(F)F)cc3)nc2s1 [Example B28]	-0.21%	8.34e-08 M	> 1000 nM
COc1nn2cc(-c3ccc(F)c(C(F)(F)F)c3)nc2s1 [Example B29]	-0.45%	–	–
COc1nn2cc(-c3ccccc3F)nc2s1 [Example B30]	-0.14%	5.26e-07 M	–
COc1nn2cc(-c3ccc([N+](=O)[O-])cc3)nc2s1 [Example B31]	1.6%	2.07e-07 M	–
CCOc1nn2cc(-c3c(F)cccc3F)nc2s1 [Example B32]	3.47%	1.17e-06 M	–
CC(C)Oc1nn2cc(-c3c(F)cccc3F)nc2s1 [Example B33]	102%	–	–
Fc1cccc(F)c1-c1cn2nc(OC3CCCC3)sc2n1 [Example B34]	109%	–	–
CCOc1nn2cc(-c3cccc(Cl)c3)nc2s1 [Example B35]	2.31%	1.24e-06 M	–
CC(C)Oc1nn2cc(-c3cccc(Cl)c3)nc2s1 [Example B36]	63.2%	–	–
CC(C)COc1nn2cc(-c3cccc(Cl)c3)nc2s1 [Example B37]	97.3%	–	–
Clc1cccc(-c2cn3nc(OC4CCCC4)sc3n2)c1 [Example B38]	99.5%	–	–
CCOc1nn2cc(-c3ccc(C(F)(F)F)cc3)nc2s1 [Example B39]	2.21%	6.48e-07 M	–
CC(C)Oc1nn2cc(-c3ccc(C(F)(F)F)cc3)nc2s1 [Example B40]	81.5%	–	–
CC(C)COc1nn2cc(-c3ccc(C(F)(F)F)cc3)nc2s1 [Example B41]	102%	–	–
FC(F)(F)c1ccc(-c2cn3nc(OC4CCCC4)sc3n2)cc1 [Example B42]	114%	–	–
COc1nn2cc(-c3ccc(OCc4csc(-c5ccccc5)n4)cc3)nc2s1 [Example B43, 2-Methoxy-6-(4-((2-phenylthiazol-4-yl)methoxy)phenyl)imidazo[2,1-b][1,3,4]thiadiazole]	0.91%	1.33e-06 M	–
CC(C)COc1nn2cc(-c3c(F)cccc3F)nc2s1 [Example B44]	93.7%	–	–
COc1nn2cc(-c3ccc4ncn(C)c4c3)nc2s1 [Example B45]	48.1%	–	–
COc1nn2cc(-c3ccc(N4CCOCC4)cc3)nc2s1 [Example B46]	10.4%	–	–
COc1nn2cc(-c3ccccc3OCc3csc(-c4ccccc4)n3)nc2s1 [Example B48]	96%	–	–
COc1nn2cc(-c3ccccc3[N+](=O)[O-])nc2s1 [Example B49]	17.1%	> 1e-06 M	–
COc1nn2cc(-c3cccc([N+](=O)[O-])c3)nc2s1 [Example B50]	6.82%	> 1e-06 M	–
COc1nn2cc(-c3ccc(-c4ccccc4)cc3)nc2s1 [Example B51]	72.7%	–	–
COc1nn2cc(-c3ccc(F)cc3)nc2s1 [Example B52]	0.063%	4.06e-07 M	–
COc1cccc(-c2cn3nc(OC)sc3n2)c1 [Example B53]	-0.071%	2.91e-07 M	–
